Data as given in PubChem BioAssay AID2366 (The Scripps Research Institute Molecular Screening Center, 2010).
The source made the active and inactive calls.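 Rule for the calls: active = compounds picked for the later follow-up tests because of their potency and selectivity; inactive = compounds skipped in follow-up as weaker or less selective.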

molecular target: Protein phosphatase methylesterase 1 (Homo sapiens) (UniProt Q9Y570); assay: PME-1 inhibitor potency by in-gel ABPP, dose response, selectivity assay for PME-1 inhibitor project, cell lysate, mouse brain cytosol, FP-rhodamine (AID 2366)
Sequence (Q9Y570 whole entry, looked up): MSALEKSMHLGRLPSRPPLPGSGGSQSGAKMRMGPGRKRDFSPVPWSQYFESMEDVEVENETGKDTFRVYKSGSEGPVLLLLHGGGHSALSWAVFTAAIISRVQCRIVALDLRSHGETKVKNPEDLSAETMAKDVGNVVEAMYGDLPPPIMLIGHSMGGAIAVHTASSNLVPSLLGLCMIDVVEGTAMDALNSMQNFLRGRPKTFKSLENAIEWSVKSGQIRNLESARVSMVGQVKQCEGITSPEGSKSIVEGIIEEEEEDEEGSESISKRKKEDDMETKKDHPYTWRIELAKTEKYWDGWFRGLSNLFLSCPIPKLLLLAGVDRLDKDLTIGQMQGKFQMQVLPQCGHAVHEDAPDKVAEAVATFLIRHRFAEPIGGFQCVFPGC

Compound | IC50
N#C/C(=C\c1cccn1S(=O)(=O)c1cccc(C#N)c1)S(=O)(=O)c1ccc(F)cc1 | 0.64 µM
CS(=O)(=O)/C(C#N)=C/c1cccn1S(=O)(=O)c1ccc([N+](=O)[O-])cc1 | 3 µM
CS(=O)(=O)/C(C#N)=C/c1cccn1S(=O)(=O)c1c(F)c(F)c(F)c(F)c1F | > 20 µM (inactive)
CS(=O)(=O)/C(C#N)=C/c1cccn1S(=O)(=O)c1ccc(C#N)cc1 | 4 µM

More lines, now with the values ahead:

IC50 | Compound
6.8 µM | CC(C)(C)S(=O)(=O)/C(C#N)=C/c1cccn1S(=O)(=O)c1ccccc1
2.5 µM | CS(=O)(=O)/C(C#N)=C/c1cccn1S(=O)(=O)c1cccc(C#N)c1
10.8 µM | CS(=O)(=O)/C(C#N)=C/c1cccn1S(=O)(=O)c1ccccc1
> 20 µM (inactive) | N#C/C(=C\c1cccn1S(=O)(=O)c1ccccc1)S(=O)(=O)c1ccccc1
3.4 µM | CC(C)(C)S(=O)(=O)/C(C#N)=C/c1cccn1S(=O)(=O)c1cccc(C#N)c1
